Values of other authors in patent US20020028792A1, “Combinations of bisphosphonates, estrogens and estrogenic agents” (American Home Products Corporation, priority 2000, published 2002).

Settings: Paget's disease of the bone; 30-mg tablets

O=P(O)(O)C(O)(Cc1cccnc1)P(=O)(O)O [Risedronate]
effectiveness in clinical trials: effective
